One assay has as its target T1, human GLP2 receptor (Homo sapiens, UniProt O95838).
T1 construct: expressed in transfected cells; host or cells: HEK cells, BacMam virus transduction
T1 sequence (O95838 1-553): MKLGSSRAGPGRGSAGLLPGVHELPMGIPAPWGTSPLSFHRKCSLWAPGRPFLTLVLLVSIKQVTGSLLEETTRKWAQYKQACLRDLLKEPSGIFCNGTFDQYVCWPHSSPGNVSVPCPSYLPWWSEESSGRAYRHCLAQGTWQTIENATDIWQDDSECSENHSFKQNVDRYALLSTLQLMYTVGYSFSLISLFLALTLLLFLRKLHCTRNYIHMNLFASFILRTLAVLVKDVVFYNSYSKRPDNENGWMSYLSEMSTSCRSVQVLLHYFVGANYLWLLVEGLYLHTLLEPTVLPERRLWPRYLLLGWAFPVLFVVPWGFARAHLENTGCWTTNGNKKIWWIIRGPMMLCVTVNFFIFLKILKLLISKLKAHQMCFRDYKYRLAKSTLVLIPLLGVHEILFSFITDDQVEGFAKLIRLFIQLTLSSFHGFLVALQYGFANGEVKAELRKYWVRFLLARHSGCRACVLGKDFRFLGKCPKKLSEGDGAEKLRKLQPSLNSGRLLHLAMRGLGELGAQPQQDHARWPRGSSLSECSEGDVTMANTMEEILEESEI
The assay can be described thus: cAMP accumulation assay, functional agonism of human GLP2 receptor. Format: cell-based. Particulars: HEK cells infected with human GLP2 receptor BacMam virus, HTRF cAMP; for Emax: HEK293, read-out: Human GLP-2R agonist cAMP Emax; for EC50: read-out: Human GLP-2R agonist cAMP pEC50 (converted). Summed up: (§1)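 Frozen HEK cells, previously BacMam-infected 24 h to express either receptor, are stimulated for 45 min at 37° C in IBMX-containing (0.5 mM) HBSS. The reaction is then terminated with HTRF reagents in lysis buffer.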
(Changes in cAMP serve as a functional read-out for many G protein-coupled receptors.)

Another assay concerns the target T2, human GLP1 receptor (Homo sapiens, UniProt P43220).
T2 construct: expressed in transfected cells; host or cells: HEK cells, BacMam virus transduction
Briefly: cAMP accumulation assay, functional agonism of human GLP1 receptor. Format: cell-based. Particulars: HEK cells infected with human GLP1 receptor BacMam virus, HTRF cAMP; for Emax: HEK293, read-out: Human GLP-1R agonist cAMP Emax; for EC50: read-out: Human GLP-1R agonist cAMP pEC50 (converted). Summed up:
as §1

SMILES strings stand for the structures. Positions of bridges follow the written chain, without caps; N, C: chain ends. Non-standard residues stand in square brackets, D forms with d. Residues, ends and D or L forms follow the SMILES beside them. Nle = CCCC[C@H](N)C(=O)O; Aib = CC(C)(N)C(=O)O

T2 sequence (P43220 24-463): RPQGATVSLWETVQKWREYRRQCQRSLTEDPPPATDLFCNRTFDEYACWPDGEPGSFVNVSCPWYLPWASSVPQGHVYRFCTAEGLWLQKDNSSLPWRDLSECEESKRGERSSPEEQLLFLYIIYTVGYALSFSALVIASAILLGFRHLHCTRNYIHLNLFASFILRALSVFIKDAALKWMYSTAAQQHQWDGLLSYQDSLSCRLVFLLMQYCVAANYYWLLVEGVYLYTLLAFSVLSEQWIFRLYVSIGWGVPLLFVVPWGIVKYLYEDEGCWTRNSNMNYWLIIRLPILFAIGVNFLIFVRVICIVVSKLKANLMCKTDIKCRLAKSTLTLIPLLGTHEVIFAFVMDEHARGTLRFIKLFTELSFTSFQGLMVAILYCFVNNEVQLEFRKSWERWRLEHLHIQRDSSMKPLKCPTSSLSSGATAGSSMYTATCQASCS

For `CCCC[C@H](NC(=O)[C@H](CCC(=O)O)NC(=O)[C@H](CC(=O)O)NC(=O)[C@H](CO)NC(=O)[C@H](Cc1ccccc1)NC(=O)[C@H](CO)NC(=O)CNC(=O)[C@H](CC(=O)O)NC(=O)C(C)(C)NC(=O)[C@@H](N)Cc1c[nH]cn1)C(=O)N[C@H](Cc1ccccc1)C(=O)N[C@H](C(=O)N[C@H](C(=O)N[C@@H](CC(C)C)C(=O)N[C@@H](CC(=O)O)C(=O)N[C@@H](CC(C)C)C(=O)N[C@H]1CCC(=O)NCCCC[C@@H](C(=O)N[C@@H](CC(=O)O)C(=O)N[C@@H](Cc2ccccc2)C(=O)N[C@H](C(=O)N[C@@H](CC(N)=O)C(=O)N[C@@H](Cc2c[nH]c3ccccc23)C(=O)N[C@@H](CC(C)C)C(=O)N[C@H](C(=O)N[C@@H](CCC(N)=O)C(=O)N[C@H](C(=O)N[C@@H](CCCCN)C(=O)N[C@H](C(=O)N[C@H](C(=O)N[C@@H](CC(=O)O)C(N)=O)[C@@H](C)O)[C@@H](C)CC)[C@@H](C)O)[C@@H](C)CC)[C@@H](C)CC)NC(=O)[C@H](C)NC(=O)[C@H](C)NC1=O)[C@@H](C)CC)[C@@H](C)O` [Example 98] (H-H[Aib]DGSFSDE[Nle][dF]TILDLEAAKDFINWLIQTKITD-NH2; lactam 17-20; C-terminus assumed), the Emax amounted to 101% on human GLP2 receptor and 96% on human GLP1 receptor. In addition, the EC50 at human GLP2 receptor was 6.31 pM; at human GLP1 receptor, 20000 pM.
`CCCC[C@H](NC(=O)[C@H](CCC(=O)O)NC(=O)[C@H](CC(=O)O)NC(=O)[C@H](CO)NC(=O)[C@H](Cc1ccccc1)NC(=O)[C@H](CO)NC(=O)CNC(=O)[C@H](CC(=O)O)NC(=O)C(C)(C)NC(=O)[C@@H](N)Cc1c[nH]cn1)C(=O)N[C@H](Cc1ccccc1)C(=O)N[C@H](C(=O)N[C@H](C(=O)N[C@@H](CC(C)C)C(=O)N[C@@H](CC(=O)O)C(=O)N[C@@H](CC(C)C)C(=O)N[C@@H](CCCCN)C(=O)N[C@@H](C)C(=O)N[C@@H](C)C(=O)N[C@@H](CCCCN)C(=O)N[C@@H](CC(=O)O)C(=O)N[C@@H](Cc1ccccc1)C(=O)N[C@H](C(=O)N[C@H]1CCC(=O)NCCCC[C@@H](C(=O)N[C@H](C(=O)N[C@@H](CCCCN)C(=O)N[C@H](C(=O)N[C@H](C(=O)N[C@@H](CC(=O)O)C(N)=O)[C@@H](C)O)[C@@H](C)CC)[C@@H](C)O)NC(=O)[C@H]([C@@H](C)CC)NC(=O)[C@H](CC(C)C)NC(=O)[C@H](Cc2c[nH]c3ccccc23)NC1=O)[C@@H](C)CC)[C@@H](C)CC)[C@@H](C)O` [Example 99] (H-H[Aib]DGSFSDE[Nle][dF]TILDLKAAKDFIEWLIKTKITD-NH2; lactam 24-28 (inferred); C-terminus assumed): on human GLP2 receptor, the maximal response (Emax) came out at 101% and the EC50 is 5.01 pM. Also, on human GLP1 receptor, the Emax turned out to be 97.1% and the EC50 is 2510 pM.
`CCCC[C@H](NC(=O)[C@H](CCC(=O)O)NC(=O)[C@H](CC(=O)O)NC(=O)[C@H](CO)NC(=O)[C@H](Cc1ccccc1)NC(=O)[C@H](CO)NC(=O)CNC(=O)[C@H](CC(=O)O)NC(=O)C(C)(C)NC(=O)[C@@H](N)Cc1c[nH]cn1)C(=O)N[C@H](Cc1ccccc1)C(=O)N[C@H](C(=O)N[C@H](C(=O)N[C@@H](CC(C)C)C(=O)N[C@@H](CC(=O)O)C(=O)N[C@@H](CC(C)C)C(=O)N[C@@H](CCCCN)C(=O)N[C@@H](C)C(=O)N[C@@H](C)C(=O)N[C@@H](CCCCN)C(=O)N[C@@H](CC(=O)O)C(=O)N[C@@H](Cc1ccccc1)C(=O)N[C@H](C(=O)N[C@H]1CCCCNC(=O)C[C@@H](C(=O)N[C@H](C(=O)N[C@@H](CCCCN)C(=O)N[C@H](C(=O)N[C@H](C(=O)N[C@@H](CC(=O)O)C(N)=O)[C@@H](C)O)[C@@H](C)CC)[C@@H](C)O)NC(=O)[C@H]([C@@H](C)CC)NC(=O)[C@H](CC(C)C)NC(=O)[C@H](Cc2c[nH]c3ccccc23)NC1=O)[C@@H](C)CC)[C@@H](C)CC)[C@@H](C)O` [Example 100] (H-H[Aib]DGSFSDE[Nle][dF]TILDLKAAKDFIKWLIDTKITD-NH2; lactam 24-28; N-terminus and C-terminus assumed): the Emax was 100% at human GLP2 receptor and 96% on human GLP1 receptor. Besides, the results for the EC50 on human GLP2 receptor and at human GLP1 receptor were 5.01 pM and 794 pM, respectively.
Regarding `CCCC[C@H](NC(=O)[C@H](CCC(=O)O)NC(=O)[C@H](CC(=O)O)NC(=O)[C@H](CO)NC(=O)[C@H](Cc1ccccc1)NC(=O)[C@H](CO)NC(=O)CNC(=O)[C@H](CC(=O)O)NC(=O)C(C)(C)NC(=O)[C@@H](N)Cc1c[nH]cn1)C(=O)N[C@H](Cc1ccccc1)C(=O)N[C@H](C(=O)N[C@H](C(=O)N[C@@H](CC(C)C)C(=O)N[C@@H](CC(=O)O)C(=O)N[C@@H](CC(C)C)C(=O)N[C@@H](CCCCN)C(=O)N[C@@H](C)C(=O)N[C@@H](C)C(=O)N[C@@H](CCCCN)C(=O)N[C@@H](CC(=O)O)C(=O)N[C@@H](Cc1ccccc1)C(=O)N[C@H](C(=O)N[C@@H](CC(N)=O)C(=O)N[C@@H](Cc1c[nH]c2ccccc12)C(=O)N[C@@H](CC(C)C)C(=O)N[C@H](C(=O)N[C@@H](CCC(N)=O)C(=O)N[C@H](C(=O)N[C@H]1CCCCNC(=O)CC[C@@H](C(N)=O)NC(=O)[C@H]([C@@H](C)O)NC(=O)[C@H]([C@@H](C)CC)NC1=O)[C@@H](C)O)[C@@H](C)CC)[C@@H](C)CC)[C@@H](C)CC)[C@@H](C)O` [Example 101] (H-H[Aib]DGSFSDE[Nle][dF]TILDLKAAKDFINWLIQTKITE-NH2; lactam 30-33 (inferred); C-terminus assumed), on human GLP2 receptor, the Emax turned out to be 101% and the EC50 is 31.6 pM. Moreover, at human GLP1 receptor, the Emax worked out at 96.7% and the EC50 was 12600 pM.
For the compound `CCCC[C@H](NC(=O)[C@H](CCC(=O)O)NC(=O)[C@H](CC(=O)O)NC(=O)[C@H](CO)NC(=O)[C@H](Cc1ccccc1)NC(=O)[C@H](CO)NC(=O)CNC(=O)[C@H](CC(=O)O)NC(=O)C(C)(C)NC(=O)[C@@H](N)Cc1c[nH]cn1)C(=O)N[C@H](Cc1ccccc1)C(=O)N[C@H](C(=O)N[C@H](C(=O)N[C@@H](CC(C)C)C(=O)N[C@@H](CC(=O)O)C(=O)N[C@H]1CCCCNC(=O)C[C@@H](C(=O)N[C@@H](CC(=O)O)C(=O)N[C@@H](Cc2ccccc2)C(=O)N[C@H](C(=O)N[C@@H](CC(N)=O)C(=O)N[C@@H](Cc2c[nH]c3ccccc23)C(=O)N[C@@H](CC(C)C)C(=O)N[C@H](C(=O)N[C@@H](CCC(N)=O)C(=O)N[C@H](C(=O)N[C@@H](CCCCN)C(=O)N[C@H](C(=O)N[C@H](C(=O)N[C@@H](CC(=O)O)C(N)=O)[C@@H](C)O)[C@@H](C)CC)[C@@H](C)O)[C@@H](C)CC)[C@@H](C)CC)NC(=O)[C@H](C)NC(=O)[C@H](C)NC(=O)[C@H](CCCCN)NC1=O)[C@@H](C)CC)[C@@H](C)O` [Example 103] (H-H[Aib]DGSFSDE[Nle][dF]TILDKKAADDFINWLIQTKITD-NH2; lactam 16-20), on human GLP2 receptor, the maximal effect (Emax) stood at 100% and the EC50 is 1.58 pM. Moreover, on human GLP1 receptor, the maximal effect (Emax) was found to be 97% and the EC50 was 2000 pM.
For `CCCC[C@H](NC(=O)[C@H](CCC(=O)O)NC(=O)[C@@H]1CCCCNC(=O)CC[C@H](NC(=O)[C@H](CC(=O)O)NC(=O)C(C)(C)NC(=O)[C@@H](N)Cc2c[nH]cn2)C(=O)N[C@@H](CO)C(=O)N[C@@H](Cc2ccccc2)C(=O)N[C@@H](CO)C(=O)N1)C(=O)N[C@H](Cc1ccccc1)C(=O)N[C@H](C(=O)N[C@H](C(=O)N[C@@H](CC(C)C)C(=O)N[C@@H](CC(=O)O)C(=O)N[C@@H](CC(C)C)C(=O)N[C@@H](CCCCN)C(=O)N[C@@H](C)C(=O)N[C@@H](C)C(=O)N[C@@H](CCCCN)C(=O)N[C@@H](CC(=O)O)C(=O)N[C@@H](Cc1ccccc1)C(=O)N[C@H](C(=O)N[C@@H](CC(N)=O)C(=O)N[C@@H](Cc1c[nH]c2ccccc12)C(=O)N[C@@H](CC(C)C)C(=O)N[C@H](C(=O)N[C@@H](CCC(N)=O)C(=O)N[C@H](C(=O)N[C@H]1CCC(=O)NCCCC[C@@H](C(N)=O)NC(=O)[C@H]([C@@H](C)O)NC(=O)[C@H]([C@@H](C)CC)NC1=O)[C@@H](C)O)[C@@H](C)CC)[C@@H](C)CC)[C@@H](C)CC)[C@@H](C)O` [Example 104] (H-H[Aib]DESFSKE[Nle][dF]TILDLKAAKDFINWLIQTEITK-NH2; lactam 4-8, 30-33 (inferred); C-terminus assumed), on human GLP2 receptor, the Emax turned out to be 102% and the EC50 is 501 pM. In addition, at human GLP1 receptor, the Emax was 88.3% and the EC50 was 3980 pM.

For orientation: Emax means the greatest response seen or fitted, relative to the assay's reference.

The record behind these values is US20240270809A1, “ORAL GLP RECEPTOR AGONISTS” (priority 2020, published 2024).
